Test results published in ChEMBL document CHEMBL5104106, “Designed hybrid anticancer nuclear-localized peptide inhibits aggressive cancer cell proliferation” (RSC Med Chem, 2022).
The source made the active and inactive calls. No cut-off for these calls is given here. Where a SMILES comes first, the peptide text is derived from it. The star is where a group is joined. X1 = O=C(c1ccccc1-c1c2ccc(=O)cc-2oc2cc(O)ccc12)*

Experiments:
[1] = test system: K562; test: Induction of apoptosis in human K562 cells assessed as cell death at 10 to 20 uM incubated for 24 hrs by AnnexinV-FITC/propidium iodide staining based flow cytometric analysis; format: functional; conditions: dose 10-20 µM
[2] = test system: K562; test: Induction of apoptosis in human K562 cells assessed as […] incubated for 24 hrs by AnnexinV-FITC/propidium iodide staining based flow cytometric analysis (reference value: 31 +/- 0.4 %); format: functional
[3] = Drug uptake in human U-937 cells at 5 uM incubated for 4 hrs by flow cytometric analysis; format: ADME, cell-based; conditions: u-937, 4 h
[4] = Drug uptake in human K562 cells at 5 uM incubated for 4 hrs by Hoechst 33258 staining based fluorescence microscopic analysis; format: ADME, cell-based; conditions: k562, 4 h
[5] = Drug uptake in human K562 cells at 5 uM incubated for 1 hrs by flow cytometry analysis; format: ADME, cell-based; conditions: k562, 1 h
[6] = test system: K562; test: Induction of apoptosis in human K562 cells assessed as early apoptotic cells at 1.5625 to 25 uM incubated for 24 hrs by AnnexinV-FITC/propidium iodide staining based flow cytometric analysis; format: functional, cell-based; conditions: dose 1.5625-25 µM
[7] = test system: K562; test: Induction of apoptosis in human K562 cells assessed as late apoptotic cells at 1.5625 to 25 uM incubated for 24 hrs by AnnexinV-FITC/propidium iodide staining based flow cytometric analysis; format: functional, cell-based; conditions: dose 1.5625-25 µM
[8] = test system: K562; test: Induction of apoptosis in human K562 cells incubated for 24 hrs by AnnexinV-FITC/propidium iodide staining based flow cytometric analysis; format: functional, cell-based; conditions: K562, 24 h
[9] = test system: U-937; test: Induction of apoptosis in human U-937 cells incubated for 24 hrs by AnnexinV-FITC/propidium iodide staining based flow cytometric analysis; format: functional, cell-based; conditions: U-937, 24 h

Drug uptake [5]	IC50 [8] [µM]	IC50 [9] [µM]	Compound	Activity [2] [%]	also measured
Active	–	–	CSCC[C@H](NC(=O)[C@H](CC(C)C)NC(=O)[C@H](CCCCN)NC(=O)[C@H](CCC(N)=O)NC(=O)[C@H](CCCNC(=N)N)NC(=O)[C@H](CCCCN)NC(=O)[C@H](CCCNC(=N)N)NC(=O)[C@H](CCC(N)=O)NC(=O)[C@@H](NC(=O)[C@H](CCCNC(=N)N)NC(=O)[C@H](Cc1cnc[nH]1)NC(=O)[C@H](CC(C)C)NC(=O)[C@@H](NC(=O)[C@@H](NC(=O)[C@H](CC(C)C)NC(=O)[C@@H](NC(=O)[C@H](CC(=O)O)NC(=O)[C@H](CC(C)C)NC(=O)[C@H](Cc1ccccc1)NC(=O)c1ccccc1-c1c2ccc(=O)cc-2oc2cc(O)ccc12)[C@@H](C)O)C(C)C)C(C)C)C(C)C)C(=O)N1CCC[C@H]1C(=O)O (X1-FLDTLVVLHRVQRKRQKLMP-OH)	–	Drug uptake [3]: Active; Drug uptake [4]: Active
–	5.58	1390	H-FLDTLVVLHRVQRKRQKLMP-OH	36	Activity [6]: Active; Activity [7]: Active

The remaining lines, values behind:

Compound	Drug uptake [5]	IC50 [8] [µM]	IC50 [9] [µM]	Activity [2] [%]	also measured
CC[C@H](C)[C@H](NC(=O)[C@@H]1CCCN1C(=O)[C@@H](NC(=O)[C@@H](C)N)C(C)C)C(=O)N[C@@H](Cc1ccccc1)C(=O)N[C@@H](CCCCN)C(=O)N[C@@H](Cc1ccccc1)C(=O)N[C@@H](CC(C)C)C(=O)N[C@@H](CC(=O)O)C(=O)N[C@H](C(=O)N[C@@H](CC(C)C)C(=O)N[C@H](C(=O)N[C@H](C(=O)N[C@@H](CC(C)C)C(=O)N[C@@H](Cc1cnc[nH]1)C(=O)N[C@@H](CCCNC(=N)N)C(=O)N[C@H](C(=O)N[C@@H](CCC(N)=O)C(=O)N[C@@H](CCCNC(=N)N)C(=O)N[C@@H](CCCCN)C(=O)N[C@@H](CCCNC(=N)N)C(=O)N[C@@H](CCC(N)=O)C(=O)N[C@@H](CCCCN)C(=O)N[C@@H](CC(C)C)C(=O)N[C@@H](CCSC)C(=O)N1CCC[C@H]1C(=O)O)C(C)C)C(C)C)C(C)C)[C@@H](C)O	–	–	–	44	Activity [1]: Active
H-FLDTLVVLHR-OH	–	30.1	374	–	–
CC(C)C[C@H](NC(=O)[C@H](Cc1ccccc1)NC(=O)c1ccccc1-c1c2ccc(=O)cc-2oc2cc(O)ccc12)C(=O)N[C@@H](CC(=O)O)C(=O)N[C@H](C(=O)N[C@@H](CC(C)C)C(=O)N[C@H](C(=O)N[C@H](C(=O)N[C@@H](CC(C)C)C(=O)N[C@@H](Cc1cnc[nH]1)C(=O)N[C@@H](CCCNC(=N)N)C(=O)O)C(C)C)C(C)C)[C@@H](C)O (X1-FLDTLVVLHR-OH)	Active	–	–	–	–
